# Data from US9718817B2, “Aryl and heteroaryl ether compounds as ROR gamma modulators” (Glenmark Pharmaceuticals S.A., priority 2014, dated 2017).
# Target: T1, GST-tagged ROR gamma ligand binding domain (LBD) (Homo sapiens, UniProt P51449)
# T1 construct: purchased Invitrogen
# T1 sequence (P51449 269-508 limits assumed): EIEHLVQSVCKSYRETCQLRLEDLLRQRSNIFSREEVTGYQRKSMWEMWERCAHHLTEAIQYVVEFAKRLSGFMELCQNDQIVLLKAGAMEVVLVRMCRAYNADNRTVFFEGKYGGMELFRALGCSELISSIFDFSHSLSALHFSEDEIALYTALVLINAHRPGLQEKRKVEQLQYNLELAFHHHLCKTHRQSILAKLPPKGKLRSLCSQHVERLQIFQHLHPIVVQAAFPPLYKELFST
# Assay: TR-FRET assay for ROR gamma (LanthaScreen co-activator peptide recruitment)
# Type: biochemical
# Details: for IC50: class symbols, from dose response curve; for inhibition at 1 µM: compound 1 μM; for inhibition at 1 µM / inhibition at 10 µM: TR-FRET ratio 520/495, percent of control; for inhibition at 10 µM: compound 10 μM
# Text: The compounds described herein were screened for ROR gamma modulator activity using the TR-FRET assay by Lantha Screen as described in JBC 2011, 286, 26: 22707-10; and Drug Metabolism and Disposition 2009, 37, 10: 2069-78.
# The assay is based on the principle that binding of the agonist to the ROR gamma causes a conformational change around helix 12 in the ligand binding domain, resulting in higher affinity for the co-activator peptide. ROR gamma being constitutively active, the Fluorescein-D22 co-activator peptide used in the assay is recruited in the absence of a ligand. Binding of the co-activator peptide, causes an increase in the TR-FRET signal while binding of an antagonist decreases the recruitment of the co-activator peptide, causing a decrease in the TR-FRET signal compared to control with no compound. The assay was performed using a two-step procedure, pre-incubation step with the compound followed by the detection step on addition of the anti-GST tagged terbium (Tb) and fluorescein tagged fluorophores as the acceptor.
# Test compounds or reference compounds such as T0901317 (Calbiochem) were dissolved in dimethylsulfoxide (DMSO) to prepare 10.0 mM stock solutions and diluted to the desired concentration. The final concentration of DMSO in the reaction was 4% (v/v). The assay mixture was prepared by mixing 10 nM of the GST-tagged ROR gamma ligand binding domain (LBD) in the assay buffer containing 25 mM HEPES (pH 7.4), 100 mM NaCl, 5 mM DTT and 0.01% BSA with or without the desired concentration of the compound. The reaction was incubated at 22° C. for 1 hour. The pre-incubation step was terminated by addition of the detection mixture containing 300 nM Fluorescein-D22 co-activator peptide and 10 nM lantha screen Tb-anti GST antibody into the reaction mixture. After shaking for 5 minutes the reaction was further incubated for 1 hour at room temperature and read at 4° C. on an Infinite F500 reader as per the kit instructions (Invitrogen). The inhibition of test compound was calculated based on the TR-FRET ratio of 520/495. The activity was calculated as a percent of control reaction. IC50 values were calculated from dose response curve by nonlinear regression analysis using GraphPad Prism software.
# Percentage inhibition at concentrations of 1.0 μM and 10.0 μM are given in the table along with IC50 (nM) details for selected examples.
SMILES,IC50 [nM],inhibition at 1 µM [%],inhibition at 10 µM [%]
"CCS(=O)(=O)c1ccc(CC(=O)Nc2ccc(OC3(c4nc5cc(Cl)ccc5n4C)CCC3)cc2)cc1 [Example 25, N-{4-[1-(5-Chloro-1-methyl-1H-benzoimidazol-2-yl)-cyclobutoxy]-phenyl}-2-(4-ethanesulfonyl-phenyl)-acetamide]",50 to 100,85.3,94.2
"CCn1c(C2(Oc3ccc(NC(=O)Cc4ccc(S(=O)(=O)CC)cc4)cc3)CCC2)nc2cc(F)ccc21 [Example 26, 2-(4-Ethanesulfonyl-phenyl)-N-{4-[1-(1-ethyl-5-fluoro-1H-benzoimidazol-2-yl)-cyclobutoxy]-phenyl}-acetamide]",50 to 100,80.5,90.9
"CCS(=O)(=O)c1ccc(CC(=O)Nc2ccc(OC3(c4nnc5ccc(Cl)cn45)CCC3)cc2)cc1 [Example 27, N-{4-[1-(6-Chloro-[1,2,4]triazolo[4,3-a]pyridin-3-yl)-cyclobutoxy]-phenyl}-2-(4-ethanesulfonyl-phenyl)-acetamide]",50 to 100,69.7,90
"CCS(=O)(=O)c1ccc(CC(=O)Nc2ccc(OC(C)(C)c3noc(-c4ccc(Cl)cc4)n3)cc2)cc1 [Example 28, N-(4-{1-[5-(4-Chloro-phenyl)-[1,2,4]oxadiazol-3-yl]-1-methyl-ethoxy}-phenyl)-2-(4-ethanesulfonyl-phenyl)-acetamide]",,61.1,84.4
"CCS(=O)(=O)c1ccc(CC(=O)Nc2ccc(OC(C)(C)Cn3ccc4cc(Cl)ccc43)cc2)cc1 [Example 29, N-(4-{[1-(5-Chloro-1H-indol-1-yl)-2-methylpropan-2-yl]oxy}phenyl)-2-[4-(ethylsulfonyl)phenyl]acetamide]",< 50,80.3,82.8
"CCS(=O)(=O)c1ccc(CC(=O)Nc2ccc(OC(C)(C)Cn3c(C)cc4cc(F)ccc43)cc2)cc1 [Example 30, 2-[4-(Ethylsulfonyl)phenyl]-N-(4-{[1-(5-fluoro-2-methyl-1H-indol-1-yl)-2-methylpropan-2-yl]oxy}phenyl)acetamide]",,67.7,70.7
"CCS(=O)(=O)c1ccc(CC(=O)Nc2ccc(OC3(c4ccc(Cl)cc4)CCC3)cc2)cc1 [Example 31, N-{4-[1-(4-Chloro-phenyl)-cyclobutoxy]-phenyl}-2-(4-ethanesulfonyl-phenyl)-acetamide]",50 to 100,81.9,89.1
"CCS(=O)(=O)c1ccc(CC(=O)Nc2ccc(OC3(c4ccc(Cl)c(F)c4)CCC3)cc2)cc1 [Example 32, N-(4-{[1-(4-Chloro-3-fluorophenyl)cyclobutyl]oxy}phenyl)-2-[4-(ethylsulfonyl)phenyl]acetamide]",< 50,83.7,88.5
"CCS(=O)(=O)c1ccc(CC(=O)Nc2ccc(OC3(c4ccc(Cl)cc4F)CCC3)cc2)cc1 [Example 33, N-(4-{[1-(4-Chloro-2-fluorophenyl)cyclobutyl]oxy}phenyl)-2-[4-(ethylsulfonyl)phenyl]acetamide]",,76.7,81.8
"CCS(=O)(=O)c1ccc(CC(=O)Nc2ccc(OC3(c4ccc(F)c(F)c4)CCC3)cc2)cc1 [Example 34, N-{4-[1-(3,4-Difluoro-phenyl)-cyclobutoxy]-phenyl}-2-(4-ethanesulfonyl-phenyl)-acetamide]",< 50,86.6,89.7
"CCS(=O)(=O)c1ccc(CC(=O)Nc2ccc(OC3(c4ccc(F)c(F)c4)CCOCC3)cc2)cc1 [Example 35, N-{4-[4-(3,4-Difluoro-phenyl)-tetrahydro-pyran-4-yloxy]-phenyl}-2-(4-ethanesulfonyl-phenyl)-acetamide]",50 to 100,79.5,86.7
"CCS(=O)(=O)c1ccc(CC(=O)Nc2ccc(OC3(c4ccc(Cl)cc4F)CCOCC3)cc2)cc1 [Example 36, N-(4-{[4-(4-Chloro-2-fluorophenyl)tetrahydro-2H-pyran-4-yl]oxy}phenyl)-2-[4-(ethylsulfonyl)phenyl]acetamide]",,69.9,74.7
"CCS(=O)(=O)c1ccc(CC(=O)Nc2ccc(OC3(c4ccc(Cl)cc4)CCOCC3)cc2)cc1 [Example 37, N-{4-[4-(4-Chlorophenyl)-tetrahydro-pyran-4-yloxy]-phenyl}-2-(4-ethanesulfonyl-phenyl)-acetamide]",> 100,80.8,83.2
"CCS(=O)(=O)c1ccc(CC(=O)Nc2ccc(OC3(c4ccc(Cl)c(F)c4)CCOCC3)cc2)cc1 [Example 38, N-{4-[4-(4-Chloro-3-fluoro-phenyl)-tetrahydro-pyran-4-yloxy]-phenyl}-2-(4-ethanesulfonyl-phenyl)-acetamide]",< 50,85.8,87.8
"CCS(=O)(=O)c1ccc(CC(=O)Nc2ccc(OC3(c4ccc(Cl)c(Cl)c4)CCOCC3)cc2)cc1 [Example 39, N-{4-[4-(3,4-Dichloro-phenyl)-tetrahydro-pyran-4-yloxy]-phenyl}-2-(4-ethanesulfonyl-phenyl)-acetamide]",50 to 100,87.7,94.8
"CCS(=O)(=O)c1ccc(CC(=O)Nc2ccc(OC3(c4ccc(Cl)cc4Cl)CCOCC3)cc2)cc1 [Example 40, N-{4-[4-(2,4-Dichloro-phenyl)-tetrahydro-pyran-4-yloxy]-phenyl}-2-(4-ethanesulfonyl-phenyl)-acetamide]",< 50,77.4,81.9
"CCS(=O)(=O)c1ccc(CC(=O)Nc2ccc(OC3(c4ccc(C(F)(F)F)c(F)c4)CCOCC3)cc2)cc1 [Example 41, 2-(4-Ethanesulfonyl-phenyl)-N-{4-[4-(3-fluoro-4-trifluoromethyl-phenyl)-tetrahydro-pyran-4-yloxy]-phenyl}-acetamide]",> 100,78,87.2
"CCS(=O)(=O)c1ccc(CC(=O)Nc2ccc(OC3(c4ccc(F)c(C(F)(F)F)c4)CCOCC3)cc2)cc1 [Example 42, 2-(4-Ethanesulfonyl-phenyl)-N-{4-[4-(4-fluoro-3-trifluoromethyl-phenyl)-tetrahydro-pyran-4-yloxy]-phenyl}-acetamide]",,65.9,86
"CCS(=O)(=O)c1ccc(CC(=O)Nc2ccc(OC3(c4ccc(Cl)c(F)c4)CCNCC3)cc2)cc1 [Example 43, N-(4-{[4-(4-Chloro-3-fluorophenyl)piperidin-4-yl]oxy}phenyl)-2-[4-(ethylsulfonyl)phenyl]acetamide]",,27.3,55
"CCS(=O)(=O)c1ccc(CC(=O)Nc2ccc(OC3(c4ccc(Cl)c(F)c4)CCN(C)CC3)cc2)cc1 [Example 44, N-{4-[4-(4-Chloro-3-fluoro-phenyl)-1-methyl-piperidin-4-yloxy]-phenyl}-2-(4-ethanesulfonyl-phenyl)-acetamide]",,44.6,70
"CCS(=O)(=O)c1ccc(CC(=O)Nc2ccc(OC3(c4ccc(Cl)c(F)c4)COC3)cc2)cc1 [Example 45, N-{4-[3-(4-Chloro-3-fluoro-phenyl)-oxetan-3-yloxy]-phenyl}-2-(4-ethanesulfonyl-phenyl)-acetamide]",< 50,76.8,85.7
"CCS(=O)(=O)c1ccc(CC(=O)Nc2ccc(OC3(c4ccc(Cl)c(Cl)c4)COC3)cc2)cc1 [Example 46, N-{4-[3-(3,4-Dichlorophenyl)-oxetan-3-yloxy]-phenyl}-2-(4-ethanesulfonyl-phenyl)-acetamide]",> 100,68.1,86.3
"CCS(=O)(=O)c1ccc(CC(=O)Nc2ccc(OC3(c4ccc(Cl)cc4Cl)COC3)cc2)cc1 [Example 47, N-{4-[3-(2,4-Dichlorophenyl)-oxetan-3-yloxy]-phenyl}-2-(4-ethanesulfonyl-phenyl)-acetamide]",< 50,90.3,93.2
